Measurements published in US8697730B2, “5-lipoxygenase activating protein (FLAP) inhibitor” (Panmira Pharmaceuticals, LLC, priority 2007, dated 2014).
Read-outs that look alike come from different tables or passages of the source.

Key:
[1] = Phase 1 study in healthy human volunteers, plasma pharmacokinetics; assay type: in vivo; conditions: for AUC(0-t): read-out: AUC0-24 (hr * mM) AVE ± SD; for Tmax: read-out: Tmax (hr) AVE ± SD; for half-life: read-out: t1/2 (hr) AVE ± SD (converted)
Description: The study is divided into two phases (Single and Multiple Dose Phases).
One cohort in the Multiple Dose Phase receives twice daily dosing.
Placebo solution to match. The finished aqueous solution is prepared in the clinical study site pharmacy within 24 hours of dosing. The study drug is stored at room temperature between 15-30° C. (59-86° F.) and protected from light.
Route of Administration: All doses are administered orally with approximately 100 mL of water rinse. Subjects are fasted for at least 8 hours prior to dosing and for 2 hours after dosing.
Obtain pre-dose fasting blood samples for hematology determinations. Obtain pre-dose fasting blood samples for serum chemistry determinations. Obtain pre-dose blood samples (5 mL EDTA and 4 mL heparinized) for baseline PK and LTB4. Collect ‘spot’ urine prior to study drug administration for baseline (pre-dose) LTE4. Administer study drug. […] Collect blood samples (2 mL heparinized) for LTB4 at 0.5, 1, 2, 3, 4, 6, 8, and 12 hours. Collect urine for LTE4 for the following separate intervals: 0-3, 3-6, 6-9, and 9-12 hours. For twice daily dosing group (if conducted): administer study drug 12 hours±30 minutes after prior dose, preceded by ≧2 hours fast. […]

[2] = in vivo, po, 250 mg/kg
Description: Twenty-four hours following the final administration mice were placed into an enclosed Plexiglas chamber and exposed to CO2 for a period of 1-2 minutes or until breathing ceased. They were then removed and blood was taken via a cardiac puncture and cervical dislocation was performed. Subjects were next placed in a supine position and a midline incision made. All organs were inspected and the livers removed by careful dissection. Liver weights were recorded as well as any gross abnormalities.

[3] = in vivo; conditions: male, Sprague-Dawley, rat, po
[4] = both sexes, human, single dose 50 mg, oral solution, fasted healthy subjects
[5] = both sexes, human, single dose 150 mg, oral solution, fasted healthy subjects
[6] = both sexes, human, single dose 300 mg, oral solution, fasted healthy subjects
[7] = both sexes, human, single dose 600 mg, oral solution, fasted healthy subjects
[8] = both sexes, human, single dose 1000 mg, oral solution, fasted healthy subjects
[9] = male, human, multiple dose phase, Day 1, 150 mg, oral solution
[10] = male, human, multiple dose phase, Day 1, 450 mg, oral solution
[11] = male, human, multiple dose phase, Day 1, 1000 mg, oral solution

COc1ccc(-c2ccc(Cn3c(CC(C)(C)C(=O)O)c(SC(C)(C)C)c4cc(OCc5ccccn5)ccc43)cc2)cn1 [sodium 3-[5-(pyridin-2-ylmethoxy)-3-(2-methyl-2-propylthio)-1-[4-(2-methoxypyridin-5-yl)benzyl]-indol-2-yl]-2,2-dimethyl-propionate]
AUC(0-t) [1, 4]: 5.4 ± 2.5 µM·h
Cmax ([1]; both sexes, human, single dose 50 mg, oral solution, fasted healthy subjects, read-out: Cmax (mM) AVE ± SD): 0.00065 ± 0.00032 mM
Tmax [1, 4]: 3 ± 0.8 h
half-life [1, 4]: 7.7 ± 0.3 h
AUC(0-t) [1, 5]: 15.9 ± 8.7 µM·h
Cmax ([1]; both sexes, human, single dose 150 mg, oral solution, fasted healthy subjects, read-out: Cmax (mM) AVE ± SD): 0.0018 ± 0.0011 mM
Tmax [1, 5]: 2.5 ± 0.5 h
half-life [1, 5]: 10 ± 2 h
AUC(0-t) [1, 6]: 25.8 ± 7.4 µM·h
Cmax ([1]; both sexes, human, single dose 300 mg, oral solution, fasted healthy subjects, read-out: Cmax (mM) AVE ± SD): 0.0031 ± 0.0014 mM
Tmax [1, 6]: 3.2 ± 1 h
half-life [1, 6]: 12.3 ± 3.1 h
AUC(0-t) [1, 7]: 54 ± 35.3 µM·h
Cmax ([1]; both sexes, human, single dose 600 mg, oral solution, fasted healthy subjects, read-out: Cmax (mM) AVE ± SD): 0.0081 ± 0.0053 mM
Tmax [1, 7]: 2 ± 0.6 h
half-life [1, 7]: 8.8 ± 1.3 h
AUC(0-t) [1, 8]: 85 ± 44 µM·h
Cmax ([1]; both sexes, human, single dose 1000 mg, oral solution, fasted healthy subjects, read-out: Cmax (mM) AVE ± SD): 0.013 ± 0.005 mM
Tmax [1, 8]: 3 ± 0.8 h
half-life [1, 8]: 7.6 ± 4.6 h
Cmax ([1]; both sexes, oral, profile that may be obtained from a single dose administration to a human, dose not stated, read-out: Cmax): ≤ 0.005 mM
AUC(0-t) [1, 9]: 11.3 ± 5 µM·h
Cmax ([1]; male, human, multiple dose phase, Day 1, 150 mg, oral solution, read-out: Cmax (mM) AVE ± SD): 0.0019 ± 0.0011 mM
Tmax [1, 9]: 2.5 ± 0.5 h
half-life [1, 9]: 9.2 ± 2 h
AUC(0-t) [1, 10]: 34.2 ± 7.9 µM·h
Cmax ([1]; male, human, multiple dose phase, Day 1, 450 mg, oral solution, read-out: Cmax (mM) AVE ± SD): 0.0047 ± 0.0022 mM
Tmax [1, 10]: 2.7 ± 0.5 h
half-life [1, 10]: 13.2 ± 3.9 h
AUC(0-t) [1, 11]: 127 ± 50 µM·h
Cmax ([1]; male, human, multiple dose phase, Day 1, 1000 mg, oral solution, read-out: Cmax (mM) AVE ± SD): 0.0144 ± 0.0051 mM
Tmax [1, 11]: 2.3 ± 0.5 h
half-life [1, 11]: 11.2 ± 5.1 h
liver weight alteration ([2]; female, CD-1, mouse, 4 days): 9.1%
necropsy findings ([2]; mouse): no gross abnormalities
Tmax [3]: ≥ 2 h
